# Measured values reported in ChEMBL document CHEMBL3885861, “Open TG-GATES”.
# Species on record: Rattus norvegicus
# Experiment: Open TG-GATES - Regimen: Daily Repeat
# Type: toxicity, organism-based, Sprague-Dawley
# Design: regimen Daily Repeat, gender Male, age 6 weeks
# Conditions: in vivo, po, 30 mg/kg, route gavage, dose level Low; for APTT / Bas / Eos / Fbg / Hb / Ht / Lym / MCH / MCHC / MCV / Mono / Neu / PT / Plat / RBC / Ret / WBC: tissue Blood; for KIDNEY_L / KIDNEY_R / KIDNEY_TOTAL: tissue Kidney; for LIVER: tissue Liver; for A/G / ALP / ALT / AST / BUN / CRE / Ca / Cl / DBIL / GLC / IP / K / LDH / Na / PL / RALB / TBIL / TC / TG / TP / gamma-GTP: tissue Plasma
smiles,measurement,setting,value
CC[C@H]1[C@@H]2C[C@H]3[C@@H]4N(C)c5ccccc5[C@]45C[C@@H]([C@@H]2[C@H]5O)N3[C@@H]1O [AJMALINE],TERMINAL_BW,"72 h, time 3 day",214.3 g
same,APTT,"72 h, time 3 day",16.2 s
same,Bas,"72 h, time 3 day",0%
same,Eos,"72 h, time 3 day",1.2%
same,Fbg,"72 h, time 3 day",210 mg/dL
same,Hb,"72 h, time 3 day",13 g/dL
same,Ht,"72 h, time 3 day",39.3%
same,Lym,"72 h, time 3 day",78%
same,MCH,"72 h, time 3 day",21.7 pg
same,MCHC,"72 h, time 3 day",33%
same,MCV,"72 h, time 3 day",65.7 fL
same,Mono,"72 h, time 3 day",8.4%
same,Neu,"72 h, time 3 day",12.8%
same,PT,"72 h, time 3 day",11.7 s
same,Plat,"72 h, time 3 day",118 x10_4/uL
same,RBC,"72 h, time 3 day",599 x10_4/ul
same,Ret,"72 h, time 3 day",8.9%
same,WBC,"72 h, time 3 day",93 x10_2/uL
same,KIDNEY_L,"72 h, time 3 day",0.9 g
same,KIDNEY_R,"72 h, time 3 day",0.9 g
same,KIDNEY_TOTAL,"72 h, time 3 day",1.8 g
same,LIVER,"72 h, time 3 day",10.4 g
same,A/G,"72 h, time 3 day",2.1
same,ALP,"72 h, time 3 day",904.4 IU/L
same,ALT,"72 h, time 3 day",36.2 IU/L
same,AST,"72 h, time 3 day",66.6 IU/L
same,BUN,"72 h, time 3 day",18.2 mg/dL
same,CRE,"72 h, time 3 day",0.5 mg/dL
same,Ca,"72 h, time 3 day",11.1 mg/dL
same,Cl,"72 h, time 3 day",102.6 meq/L
same,DBIL,"72 h, time 3 day",0.024 mg/dL
same,GLC,"72 h, time 3 day",198.2 mg/dL
same,IP,"72 h, time 3 day",7.2 mg/dL
same,K,"72 h, time 3 day",4.3 meq/L
same,LDH,"72 h, time 3 day",113 IU/L
same,Na,"72 h, time 3 day",139.6 meq/L
same,PL,"72 h, time 3 day",141.4 mg/dL
same,RALB,"72 h, time 3 day",3.8 g/dL
same,TBIL,"72 h, time 3 day",0.3 mg/dL
same,TC,"72 h, time 3 day",78.2 mg/dL
same,TG,"72 h, time 3 day",85 mg/dL
same,TP,"72 h, time 3 day",5.6 g/dL
same,gamma-GTP,"72 h, time 3 day",0.8 IU/L
same,TERMINAL_BW,"[…], time 7 day",248 g
same,TERMINAL_BW,"[…], time 14 day",297.8 g
same,TERMINAL_BW,"[…], time 28 day",375.4 g
same,APTT,"[…], time 7 day",17 s
same,Bas,"[…], time 7 day",0%
same,Eos,"[…], time 7 day",1.2%
same,Fbg,"[…], time 7 day",229.4 mg/dL
same,Hb,"[…], time 7 day",13 g/dL
same,Ht,"[…], time 7 day",39.1%
same,Lym,"[…], time 7 day",75.4%
same,MCH,"[…], time 7 day",21.4 pg
same,MCHC,"[…], time 7 day",33.3%
same,MCV,"[…], time 7 day",64.2 fL
same,Mono,"[…], time 7 day",10.2%
same,Neu,"[…], time 7 day",13.6%
same,PT,"[…], time 7 day",11.4 s
same,Plat,"[…], time 7 day",118.3 x10_4/uL
same,RBC,"[…], time 7 day",609.8 x10_4/ul
same,Ret,"[…], time 7 day",7%
same,WBC,"[…], time 7 day",106.1 x10_2/uL
same,APTT,"[…], time 14 day",16.7 s
same,Bas,"[…], time 14 day",0%
same,Eos,"[…], time 14 day",1%
same,Fbg,"[…], time 14 day",224 mg/dL
same,Hb,"[…], time 14 day",13.9 g/dL
same,Ht,"[…], time 14 day",41.9%
same,Lym,"[…], time 14 day",85%
same,MCH,"[…], time 14 day",20.3 pg
same,MCHC,"[…], time 14 day",33.1%
same,MCV,"[…], time 14 day",61.4 fL
same,Mono,"[…], time 14 day",4.2%
same,Neu,"[…], time 14 day",10%
same,PT,"[…], time 14 day",11.1 s
same,Plat,"[…], time 14 day",121.6 x10_4/uL
same,RBC,"[…], time 14 day",683.4 x10_4/ul
same,Ret,"[…], time 14 day",4.3%
same,WBC,"[…], time 14 day",138.2 x10_2/uL
same,APTT,"[…], time 28 day",17.2 s
same,Bas,"[…], time 28 day",0%
same,Eos,"[…], time 28 day",1%
same,Fbg,"[…], time 28 day",221.6 mg/dL
same,Hb,"[…], time 28 day",15.4 g/dL
same,Ht,"[…], time 28 day",45.5%
same,Lym,"[…], time 28 day",83%
same,MCH,"[…], time 28 day",20.4 pg
same,MCHC,"[…], time 28 day",33.8%
same,MCV,"[…], time 28 day",60.3 fL
same,Mono,"[…], time 28 day",4.6%
same,Neu,"[…], time 28 day",11.4%
same,PT,"[…], time 28 day",11.2 s
same,Plat,"[…], time 28 day",96.6 x10_4/uL
same,RBC,"[…], time 28 day",754.8 x10_4/ul
same,Ret,"[…], time 28 day",2.1%
same,WBC,"[…], time 28 day",110.2 x10_2/uL
same,KIDNEY_L,"[…], time 7 day",1 g
same,KIDNEY_R,"[…], time 7 day",1 g
same,KIDNEY_TOTAL,"[…], time 7 day",2 g
same,KIDNEY_L,"[…], time 14 day",1.2 g
same,KIDNEY_R,"[…], time 14 day",1.2 g
same,KIDNEY_TOTAL,"[…], time 14 day",2.3 g
same,KIDNEY_L,"[…], time 28 day",1.3 g
same,KIDNEY_R,"[…], time 28 day",1.3 g
same,KIDNEY_TOTAL,"[…], time 28 day",2.7 g
same,LIVER,"[…], time 7 day",12 g
same,LIVER,"[…], time 14 day",13.8 g
same,LIVER,"[…], time 28 day",16.1 g
same,A/G,"[…], time 7 day",1.8
same,ALP,"[…], time 7 day",975.8 IU/L
same,ALT,"[…], time 7 day",34.8 IU/L
same,AST,"[…], time 7 day",65.6 IU/L
same,BUN,"[…], time 7 day",20.2 mg/dL
same,CRE,"[…], time 7 day",0.5 mg/dL
same,Ca,"[…], time 7 day",11.4 mg/dL
same,Cl,"[…], time 7 day",104.4 meq/L
same,DBIL,"[…], time 7 day",0.012 mg/dL
same,GLC,"[…], time 7 day",196.8 mg/dL
same,IP,"[…], time 7 day",7.3 mg/dL
same,K,"[…], time 7 day",4.7 meq/L
same,LDH,"[…], time 7 day",119.6 IU/L
same,Na,"[…], time 7 day",141.4 meq/L
same,PL,"[…], time 7 day",160 mg/dL
same,RALB,"[…], time 7 day",3.8 g/dL
same,TBIL,"[…], time 7 day",0.3 mg/dL
same,TC,"[…], time 7 day",82 mg/dL
same,TG,"[…], time 7 day",123.2 mg/dL
same,TP,"[…], time 7 day",5.9 g/dL
same,gamma-GTP,"[…], time 7 day",1.4 IU/L
same,A/G,"[…], time 14 day",2.2
same,ALP,"[…], time 14 day",942.2 IU/L
same,ALT,"[…], time 14 day",32.4 IU/L
same,AST,"[…], time 14 day",61 IU/L
same,BUN,"[…], time 14 day",20 mg/dL
same,CRE,"[…], time 14 day",0.5 mg/dL
same,Ca,"[…], time 14 day",10.9 mg/dL
same,Cl,"[…], time 14 day",105.2 meq/L
same,DBIL,"[…], time 14 day",0.01 mg/dL
same,GLC,"[…], time 14 day",201 mg/dL
same,IP,"[…], time 14 day",7.1 mg/dL
same,K,"[…], time 14 day",4.5 meq/L
same,LDH,"[…], time 14 day",104.8 IU/L
same,Na,"[…], time 14 day",141.4 meq/L
same,PL,"[…], time 14 day",157.6 mg/dL
same,RALB,"[…], time 14 day",3.9 g/dL
same,TBIL,"[…], time 14 day",0.3 mg/dL
same,TC,"[…], time 14 day",80 mg/dL
same,TG,"[…], time 14 day",106.8 mg/dL
same,TP,"[…], time 14 day",5.8 g/dL
same,gamma-GTP,"[…], time 14 day",1.8 IU/L
same,A/G,"[…], time 28 day",1.8
same,ALP,"[…], time 28 day",659.2 IU/L
same,ALT,"[…], time 28 day",30.8 IU/L
same,AST,"[…], time 28 day",62.8 IU/L
same,BUN,"[…], time 28 day",19.6 mg/dL
same,CRE,"[…], time 28 day",0.6 mg/dL
same,Ca,"[…], time 28 day",10.5 mg/dL
same,Cl,"[…], time 28 day",105.2 meq/L
same,DBIL,"[…], time 28 day",0.008 mg/dL
same,GLC,"[…], time 28 day",198.2 mg/dL
same,IP,"[…], time 28 day",6.2 mg/dL
same,K,"[…], time 28 day",4.5 meq/L
same,LDH,"[…], time 28 day",109.6 IU/L
same,Na,"[…], time 28 day",142.4 meq/L
same,PL,"[…], time 28 day",158.2 mg/dL
same,RALB,"[…], time 28 day",3.9 g/dL
same,TBIL,"[…], time 28 day",0.3 mg/dL
same,TC,"[…], time 28 day",71.8 mg/dL
same,TG,"[…], time 28 day",190.2 mg/dL
same,TP,"[…], time 28 day",6.1 g/dL
same,gamma-GTP,"[…], time 28 day",1 IU/L
